Data reported in ChEMBL document CHEMBL1124460, “Synthesis and biological evaluation of [125I]- and [123I]-4-iododexetimide, a potent muscarinic cholinergic receptor antagonist” (J Med Chem, 1989).

Test system: not listed separately
Assay: Ability (10 ug/kg) to inhibit binding of [125I]iododexetimide to 5-hydroxytryptamine receptor in mice
Conditions: Mus musculus

O=C(c1ccc(F)cc1)C1CCN(CCn2c(=O)[nH]c3ccccc3c2=O)CC1 [KETANSERIN] showed an IC50 of 130 µM.

Target: Muscarinic acetylcholine receptor
Assay: Displacement of [3H]N-methylscopolamine from rat brain homogenate
Type: tissue-based
Conditions: not given

O=C1CCC(c2ccccc2)(C2CCN(Cc3cccc(F)c3)CC2)C(=O)N1 (configuration not stated) and O=C1CCC(c2ccccc2)(C2CCN(Cc3cccc(I)c3)CC2)C(=O)N1 (configuration not stated) are within 1.5-fold of each other in IC50: 21 nM for the first, 22 nM for the second.

O=C1CCC(c2ccccc2)(C2CCN(Cc3ccc(Cl)cc3)CC2)C(=O)N1 (configuration not stated) and O=C1CCC(c2ccccc2)(C2CCN(Cc3ccc(Br)cc3)CC2)C(=O)N1 (configuration not stated) are within 1.5-fold of each other in IC50: 27 nM for the first, 38 nM for the second.

First: O=C1CCC(c2ccccc2)(C2CCN(Cc3ccccc3F)CC2)C(=O)N1 (configuration not stated)
Second: O=C1CCC(c2ccccc2)(C2CCN(Cc3ccccc3Br)CC2)C(=O)N1 (configuration not stated)
The IC50 of the first is 16-fold lower: 32 nM for the first, 500 nM for the second.

O=C1CCC(c2ccccc2)(C2CCN(Cc3cccc(Br)c3)CC2)C(=O)N1 (configuration not stated) and O=C1CCC(c2ccccc2)(C2CCN(Cc3cccc(Cl)c3)CC2)C(=O)N1 (configuration not stated) are within 1.5-fold of each other in IC50: 24 nM for the first, 26 nM for the second.

First: O=C1CCC(c2ccccc2)(C2CCN(Cc3ccc(I)cc3)CC2)C(=O)N1 (configuration not stated)
Second: O=C1CCC(c2ccccc2)(C2CCN(Cc3ccc(F)cc3)CC2)C(=O)N1 (configuration not stated)
The IC50 of the first is 5.8-fold lower: 17 nM for the first, 98 nM for the second.

O=C1CCC(c2ccccc2)(C2CCN(Cc3ccccc3I)CC2)C(=O)N1 (configuration not stated) and O=C1CCC(c2ccccc2)(C2CCN(Cc3ccccc3Cl)CC2)C(=O)N1 (configuration not stated) are within 1.5-fold of each other in IC50: 500 nM for the first, 460 nM for the second.

O=C1CCC(c2ccccc2)(C2CCN(Cc3ccccc3)CC2)C(=O)N1 (configuration not stated) [BENZETIMIDE] gave an IC50 of 15 nM.

Target: Muscarinic acetylcholine receptor
Assay: Ability (10 ug/kg) to inhibit binding of [125I]iododexetimide to muscarinic receptor in mice
Conditions: not given

First: Cl.O=C1CCC(c2ccccc2)(C2CCN(Cc3ccccc3)CC2)C(=O)N1 (configuration not stated) [BENZETIMIDE HYDROCHLORIDE]
Second: O=C1CC[C@@](c2ccccc2)(C2CCN(Cc3ccccc3)CC2)C(=O)N1 [DEXETIMIDE]
The IC50 of the first is 2700-fold higher: 8.9 µM for the first, 0.0033 µM for the second.

Test system: not listed separately
Assay: Ability (10 ug/kg) to inhibit binding of [125I]iododexetimide to adrenergic receptor in mice
Conditions: not given

COc1cc2nc(N3CCN(C(=O)c4ccco4)CC3)nc(N)c2cc1OC [PRAZOSIN] gave an IC50 of 13 µM.
